Reference: patent US6653304B2, “Cannabinoid receptor modulators, their processes of preparation, and use of cannabinoid receptor modulators for treating respiratory and non-respiratory diseases” (Bristol-Myers Squibb Co., priority 2000, dated 2003)

Test system: human lung epithelial cell lines H292 and A549
Assay: Activation of lung epithelial cells
Type: cell-based
Description: (2) Activation of Lung Epithelial Cells
The ability of the cannabinoids to inhibit mucin, chemokine/cytokine production from lung epithelial cells is evaluated with human lung epithelial cell lines H292 and A549. Epithelial cells are cultured overnight in 48 well microtiter plates in complete RMPI […] (200 μl/well) at a density of 2×10^5 cells/ml. The media is removed and replaced with fresh media. Test compounds in 50 μl isotonic buffer are added and incubated for 1 hour at 37° C. Cell activation is triggered by the addition of a stimulatory agent comprising one of EGF, smoke conditioned media, TNF-α or IL-1β. In this assay, the IC50 for Win-55212-2<20 mcM. After a desired period of time (e.g., 24 h) the cell supernatants are removed and assayed for mucin cytokine and chemokines by ELISA. The cannabinoid agonists inhibit mucin and IL-8 production from lung epithelial cells.

Compound: Cc1c(C(=O)c2cccc3ccccc23)c2cccc3c2n1[C@H](CN1CCOCC1)CO3 [Win-55212-2]
- activity in the lung epithelial cell assay: demonstrated activity
- IC50 (stimulated with EGF, smoke conditioned media, TNF-α or IL-1β, mucin, cytokine and chemokines by ELISA): < 20 µM
